What was measured:
[1] = In vitro human microsomal stability assay; assay type: in vitro ADME; conditions: for HUMAN […] (% REMAINING AFTER 30 MINUTES): 0.5 μM substrate, 0.25 mg/mL microsomal protein, pH 7.4, 37° C., NADPH; for HUMAN MICROSOMAL STABILITY (% REMAINING AFTER 30 MINUTES): 0.5 h, 0.5 μM, pH 7.4
Method in brief: (§1)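 Incubations ran at 37 °C in NADPH-supplemented rat (Sprague-Dawley) or human hepatic microsomes.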

human TRPV3 = molecular target: T1, human TRPV3 (Homo sapiens, UniProt Q8NET8); assay: In vitro antagonism of recombinant human TRPV3 activation (FLIPR Tetra calcium assay, 2-APB as agonist); assay type: cell-based; conditions: HEK293 cells stably expressing human TRPV3; 2-APB 80 μM; range class; read-out: IC50 (reported range)
T1 construct: expressed in transfected cells
T1 sequence (Q8NET8 1-790): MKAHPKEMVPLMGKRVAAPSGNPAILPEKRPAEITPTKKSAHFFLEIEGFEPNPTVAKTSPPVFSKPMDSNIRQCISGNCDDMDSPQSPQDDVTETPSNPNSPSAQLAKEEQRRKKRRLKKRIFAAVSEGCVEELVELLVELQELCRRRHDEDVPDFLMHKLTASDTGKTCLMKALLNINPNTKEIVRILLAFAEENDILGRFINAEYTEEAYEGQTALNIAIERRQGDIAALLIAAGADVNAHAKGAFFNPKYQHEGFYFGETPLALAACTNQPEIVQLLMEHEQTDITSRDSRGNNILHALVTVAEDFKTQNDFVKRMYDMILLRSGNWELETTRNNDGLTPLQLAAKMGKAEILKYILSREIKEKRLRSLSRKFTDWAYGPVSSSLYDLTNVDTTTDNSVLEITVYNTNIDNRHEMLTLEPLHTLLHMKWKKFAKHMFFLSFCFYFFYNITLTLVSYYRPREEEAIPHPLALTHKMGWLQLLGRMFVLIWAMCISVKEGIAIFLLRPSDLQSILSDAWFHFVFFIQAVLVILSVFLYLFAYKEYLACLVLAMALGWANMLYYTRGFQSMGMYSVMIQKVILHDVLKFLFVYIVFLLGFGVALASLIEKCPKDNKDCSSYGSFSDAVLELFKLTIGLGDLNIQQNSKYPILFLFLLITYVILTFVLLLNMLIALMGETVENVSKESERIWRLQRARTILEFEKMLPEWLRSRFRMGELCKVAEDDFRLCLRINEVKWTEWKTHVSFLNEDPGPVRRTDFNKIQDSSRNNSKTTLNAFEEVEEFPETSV
Method: Test compounds were evaluated for ability to antagonize the activation of recombinant human TRPV3 using FLIPR® Tetra cellular screening. Specifically, on the day prior to the experiment recombinant HEK293 cells that stably express human TRPV3 were removed from tissue culture flasks and plated in growth medium at 20,000 cells/well into Poly-d-lysine coated black/clear 384-well Plate (Corning, 3845) using a Multidrop® dispenser (ThermoScientific, Waltham, Mass.). Prior to the start of the assay, the medium was removed by aspiration, and cells were loaded with 30 μL no-wash FLIPR® Calcium-4 dye (λEX=470-495 nm, λEM=515-575 nm; Molecular Devices, Sunnyvale, Calif.). The cells were then incubated for 90-120 minutes in the dark prior to addition of the test compound.
A double-addition protocol was used. The test compound (i.e., the TRPV3 antagonist) was added at the 10 second time point, followed by the addition of a TRPV3 agonist three minutes later. Each test compound evaluated was first dissolved in DMSO to prepare a 10 mM stock solution. A solution (5×) of the test compound was then prepared in DPBS (Dulbecco's Phosphate Buffered Saline) and 10 μL of that solution was added to the cells at a delivery rate of 40 μL/sec. The TRPV3 agonist used to activate human TRPV3 expressed by the […] was 2-aminoethoxy-diphenyl borate (2-APB; Tocris Cookson, Ellisville, Mo.) at 80 μM. Final assay volume was 50 μL. Total length of an experimental run was 10 minutes.
Changes in fluorescence were measured over time using the FLIPR® instrument. The intensity of the fluorescence was captured and digitally transferred to an interfaced computer. The maximum response minus minimum response was calculated and expressed as the percentage of the maximum 2-APB response in the absence of antagonist. The concentration of 2-APB corresponds to its EC80.
Table 1 reports the IC50 values measured for the test compounds as human TRPV3 antagonists. […] Actual measured values are shown parenthetically after the reported range. In most cases, the values reported are average values from at least two runs (i.e., n≧2).

[2] = In vitro rat microsomal stability assay; assay type: in vitro ADME, rat (Sprague-Dawley); conditions: for RAT MICROSOMAL STABILITY (% REMAINING AFTER 30 MINUTES): Sprague-Dawley, 0.5 h, 0.5 μM, pH 7.4
Method in brief: as §1

Compound	IC50 (human TRPV3)	HUMAN MICROSOMAL STABILITY (% REMAINING AFTER 30 MINUTES) [1]	RAT MICROSOMAL STABILITY (% REMAINING AFTER 30 MINUTES) [2]	HUMAN […] (% REMAINING AFTER 30 MINUTES) [1]	RAT […] (% REMAINING AFTER 30 MINUTES) ([2]; 0.5 μM substrate, 0.25 mg/mL microsomal protein, pH 7.4, 37° C., NADPH, 30 minutes)
O[C@H](c1ccccn1)[C@]1(c2cccc(C(F)(F)F)c2)C[C@@H](O)C1 (relative stereo) [Example 264, trans-3-[(S)-hydroxy(pyridin-2-yl)methyl]-3-[3-(trifluoromethyl)phenyl]-cyclobutanol]	0.05 to 0.5 µM			56%	59%
OC(c1ccccn1)C1(C2CCOc3ccccc32)CCC1 (stereo not drawn) [Example 57, [1-(3,4-dihydro-2H-chromen-4-yl)cyclobutyl](pyridin-2-yl)methanol]	5.1 to 20 µM	16%	10%		
O=C1CC(c2cc(C(F)(F)F)ccn2)([C@@H](O)c2ccccn2)C1 [Example 278, 3-[(R)-hydroxy(pyridin-2-yl)methyl]-3-[4-(trifluoromethyl)pyridin-2-yl]-cyclobutanone]	5.1 to 20 µM	83%	>85%		
CC(c1cccc(C(F)(F)F)c1)C1(C(O)c2ccccn2)CCC1 (stereo not drawn) [Example 54, pyridin-2-yl(1-{1-[3-(trifluoromethyl)phenyl]ethyl}cyclobutyl)methanol]	> 20 µM		0.21%		
CC1(O)CC(c2cccc(OC(F)(F)F)c2)(C(O)c2ccccn2)C1 [Example 263, trans-3-[(S)-hydroxy(pyridin-2-yl)methyl]-1-methyl-3-[3-(trifluoromethoxy)-phenyl]cyclobutanol]	1.1 to 5 µM		>85%		
NC1CCCC1C(O)C1(c2cccc(OC(F)(F)F)c2)CCC1 (stereo not drawn) [Example 208, (2-aminocyclopentyl){1-[3-(trifluoromethoxy)phenyl]cyclobutyl}methanol]	1.1 to 5 µM		36%		
CC(c1cccc(F)c1)C1(C(O)c2ccccn2)CCC1 (stereo not drawn) [Example 47, {1-[1-(3-fluorophenyl)ethyl]cyclobutyl}(pyridin-2-yl)methanol]	1.1 to 5 µM				
OC(CC1(c2cccc(F)c2)CCC1)c1ccccn1 (stereo not drawn) [Example 71, 2-[1-(3-fluorophenyl)cyclobutyl]-1-(pyridin-2-yl)ethanol]	1.1 to 5 µM				
OC(c1ccccn1)C1(c2cccc(Cl)c2)COC1 (stereo not drawn) [Example 86, [3-(3-chlorophenyl)oxetan-3-yl](pyridin-2-yl)methanol]	1.1 to 5 µM				
OC(c1ccccn1)C1(c2ccccc2)CCOCC1 (stereo not drawn) [Example 60, (4-phenyltetrahydro-2H-pyran-4-yl)(pyridin-2-yl)methanol]	5.1 to 20 µM				
OC(c1ccccn1)C1(c2cccc(OC(F)(F)F)c2)CCOC1 (stereo not drawn) [Example 80, pyridin-2-yl{3-[3-(trifluoromethoxy)phenyl]tetrahydrofuran-3-yl}methanol]	1.1 to 5 µM				
NC1CCCCC1C(O)C1(c2cccc(OC(F)(F)F)c2)CCC1 (stereo not drawn) [Example 210, (2-aminocyclohexyl){1-[3-(trifluoromethoxy)phenyl]cyclobutyl}methanol]	1.1 to 5 µM				
OC(c1ccccn1)C1(c2cccc(F)c2)CCOCC1 (stereo not drawn) [Example 61, [4-(3-fluorophenyl)tetrahydro-2H-pyran-4-yl](pyridin-2-yl)methanol]	5.1 to 20 µM				
CC(c1ccccc1)C1(C(O)c2ccccn2)CCC1 (stereo not drawn) [Example 51, [1-(1-phenylethyl)cyclobutyl](pyridin-2-yl)methanol]	5.1 to 20 µM				
CC1(O)CC(c2cncc(C(F)(F)F)c2)([C@H](O)c2ccccn2)C1 (stereo in doubt) [Example 309, trans-3-[(S)-hydroxy(pyridin-2-yl)methyl]-1-methyl-3-[5-(trifluoromethyl)-pyridin-3-yl]cyclobutanol]	1.1 to 5 µM			>85%	
OC(c1ncccn1)C1(c2ccccc2OC(F)(F)F)CCC1 (stereo not drawn) [Example 36, pyrimidin-2-yl{1-[2-(trifluoromethoxy)phenyl]cyclobutyl}methanol]	5.1 to 20 µM				

Further lines, with some results ahead:

IC50 (human TRPV3)	HUMAN MICROSOMAL STABILITY (% REMAINING AFTER 30 MINUTES) [1]	RAT MICROSOMAL STABILITY (% REMAINING AFTER 30 MINUTES) [2]	Compound	HUMAN […] (% REMAINING AFTER 30 MINUTES) [1]	RAT […] (% REMAINING AFTER 30 MINUTES) ([2]; 0.5 μM substrate, 0.25 mg/mL microsomal protein, pH 7.4, 37° C., NADPH, 30 minutes)
0.05 to 0.5 µM	56%	78%	O[C@H](c1ccccn1)C1(c2ccc(C(F)(F)F)cc2)CC(F)(F)C1 [Example 154, (S)-{3,3-difluoro-1-[4-(trifluoromethyl)phenyl]cyclobutyl}(pyridin-2-yl)-methanol]		
1.1 to 5 µM	21%	13%	OC(c1ccccn1)C1(c2ccc(C(F)(F)F)c(F)c2)CCC1 (stereo not drawn) [Example 17]		
1.1 to 5 µM	80%	67%	CC1(O)CC(c2ccc(C(F)(F)F)cc2)(C(O)c2ccccn2)C1 (single isomer, unassigned) [Example 232]		
1.1 to 5 µM	70%	29%	ON=C1CC(c2ccc(OC(F)(F)F)cc2)([C@H](O)c2ccccn2)C1 (stereo partly drawn) [Example 248, (S)-{3-(hydroxyimino)-1-[4-(trifluoromethoxy)phenyl]cyclobutyl}(pyridin-2-yl)methanol]		
1.1 to 5 µM	>85%	65%	N[C@@H]1CCC[C@H]1[C@@H](O)C1(c2ccc(OC(F)(F)F)cc2)CCC1 [Example 223, (R)-[(1R,2R)-2-aminocyclopentyl]{1-[4-(trifluoromethoxy)phenyl]-cyclobutyl}methanol]		
0.501 to 1 µM	44%	0.74%	OC(CC1(c2ccc(C(F)(F)F)cc2)CCC1)c1ccccn1 (stereo not drawn) [Example 75, 1-(pyridin-2-yl)-2-{1-[4-(trifluoromethyl)phenyl]cyclobutyl}ethanol]		
1.1 to 5 µM	0.02%	<0.01%	OC(c1ccccn1)C1(C2CCCCC2)CCC1 (stereo not drawn) [Example 162, (1-cyclohexylcyclobutyl)(pyridin-2-yl)methanol]		
0.501 to 1 µM	78%	72%	CC1(O)CC(c2ccc(OC(F)(F)F)cc2)(C(O)c2ccccn2)C1 (single isomer, unassigned) [Example 134]		
0.05 to 0.5 µM		9.5%	OC(c1ncccn1)C1(c2ccc(Cl)c(Cl)c2)CCC1 (stereo not drawn) [Example 38, [1-(3,4-dichlorophenyl)cyclobutyl](pyrimidin-2-yl)methanol]		
0.501 to 1 µM		0.27%	CCN(CC)c1ccc(C2(C(O)c3ccccn3)CCC2)cc1 (stereo not drawn) [Example 18, {1-[4-(diethylamino)phenyl]cyclobutyl}(pyridin-2-yl)methanol]		
0.501 to 1 µM		7.7%	OC(c1ncccn1)C1(c2cccc(OC(F)(F)F)c2)CCC1 (stereo not drawn) [Example 37, pyrimidin-2-yl{1-[3-(trifluoromethoxy)phenyl]cyclobutyl}methanol]		
0.501 to 1 µM			CC1(O)CC(c2ccnc(C(F)(F)F)c2)(C(O)c2ccccn2)C1 [Example 302, cis-3-[(S)-hydroxy(pyridin-2-yl)methyl]-1-methyl-3-[2-(trifluoromethyl)-pyridin-4-yl]cyclobutanol]		

Source: patent publication US8772500B2, “TRPV3 modulators” (AbbVie Inc., priority 2011, dated 2014)
